Data taken from PubChem BioAssay (NCI).
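Where inhibition never reached the appropriate level, the endpoint shown equals the highest concentration tested. Otherwise, values were interpolated linearly from a five-concentration, 48-hour dose response in 96-well plates. TGI: total growth inhibition.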

How the values were obtained:
Assay in all cases: growth of human tumour cells (NCI), 48 h
[1] = tested on: OVCAR-5 ovarian
[2] = tested on: SW-620 colon
[3] = tested on: HOP-92 NSCLC
[4] = tested on: T-47D breast
[5] = tested on: SN12C renal
[6] = tested on: EKVX NSCLC
[7] = tested on: K-562 leukemia
[8] = tested on: SF-539 CNS
[9] = tested on: SF-295 CNS
[10] = tested on: HCT-116 colon
[11] = tested on: SNB-19 CNS
[12] = tested on: TK-10 renal
[13] = tested on: SK-OV-3 ovarian
[14] = tested on: SR leukemia
[15] = tested on: HT29 colon
[16] = tested on: SF-268 CNS
[17] = tested on: SK-MEL-5 melanoma
[18] = tested on: MDA-N
[19] = tested on: UACC-257 melanoma
[20] = tested on: MOLT-4 leukemia
[21] = tested on: RXF 393 renal
[22] = tested on: OVCAR-8 ovarian
[23] = tested on: MDA-MB-231 breast
[24] = tested on: CAKI-1 renal
[25] = tested on: LOX IMVI melanoma
[26] = tested on: OVCAR-4 ovarian
[27] = tested on: UO-31 renal
[28] = tested on: HCT-15 colon
[29] = tested on: MDA-MB-435
[30] = tested on: MALME-3M melanoma
[31] = tested on: RPMI-8226 leukemia
[32] = tested on: SK-MEL-28 melanoma
[33] = tested on: KM12 colon
[34] = tested on: HCC-2998 colon
[35] = tested on: NCI-H460 lung
[36] = tested on: SNB-75 CNS
[37] = tested on: 786-0 renal
[38] = tested on: SK-MEL-2 melanoma
[39] = tested on: CCRF-CEM leukemia
[40] = tested on: A549 NSCLC
[41] = tested on: BT-549 breast
[42] = tested on: MCF7 breast
[43] = tested on: NCI-H23 lung
[44] = tested on: A498 renal
[45] = tested on: NCI-H522 lung
[46] = tested on: HS 578T breast
[47] = tested on: ACHN renal
[48] = tested on: COLO 205 colon
[49] = tested on: DU-145 prostate
[50] = tested on: NCI-H226 lung
[51] = tested on: UACC-62 melanoma
[52] = tested on: M14 melanoma
[53] = tested on: HOP-62 NSCLC
[54] = tested on: PC-3 prostate
[55] = tested on: OVCAR-3 ovarian
[56] = tested on: U251 CNS
[57] = tested on: IGROV1 ovarian

Measured: TGI

C=CC1(C)CCC2C(=CCC3C2(C)CC(O)C(O)C3(C)COC2OC(C(=O)O)C(O)C(O)C2O)C1 (configuration not stated) (tested in a mixture with another compound)
> 100 µM: all assays above
